Test results from the NIST ThermoML archive (doi:10.1021/je0301038).

Experiment: xn = mol fraction of the nth substance listed
Conditions: Liquid, Pycnometric method, x1 = 0.4998

FC(Cl)(Cl)Cl [trichlorofluoromethane] + FC(F)(Cl)Cl
Conditions	mass density [kg/m3]
229.99 K, 36407 kPa	1642.58
230 K, 1073 kPa	1584.87
230 K, 2061 kPa	1587.07
230 K, 3560 kPa	1589.87
230.01 K, 1362 kPa	1585.49
230.01 K, 1769 kPa	1586.39
230.01 K, 2415 kPa	1587.69
230.01 K, 2764 kPa	1588.35
230.01 K, 3080 kPa	1589
230.01 K, 10736 kPa	1602.83
230.01 K, 22197 kPa	1621.64
230.01 K, 50366 kPa	1660.98
230.01 K, 63788 kPa	1677.26
270 K, 755 kPa	1479.99
270 K, 1039 kPa	1480.78
270 K, 1716 kPa	1482.68
270 K, 2040 kPa	1483.59
270 K, 2400 kPa	1484.58
270 K, 2768 kPa	1485.54
270 K, 3627 kPa	1487.88
270 K, 15483 kPa	1517.06
270 K, 25381 kPa	1538
270 K, 35970 kPa	1557.73
270 K, 45944 kPa	1574.79
270 K, 56182 kPa	1590.7
270 K, 63322 kPa	1601.09
270.01 K, 1412 kPa	1481.79
270.01 K, 3077 kPa	1486.41
270.01 K, 8526 kPa	1500.56
298.14 K, 686 kPa	1402.27
298.14 K, 1019 kPa	1403.48
298.14 K, 2067 kPa	1407.39
298.14 K, 2429 kPa	1408.71
298.14 K, 2749 kPa	1409.89
298.14 K, 6905 kPa	1424.28
298.14 K, 14368 kPa	1447.12
298.14 K, 20993 kPa	1465.01
298.14 K, 42543 kPa	1512.9
298.14 K, 50266 kPa	1527.35
298.14 K, 57226 kPa	1539.49
298.14 K, 63755 kPa	1550.31
298.14 K, 69807 kPa	1559.74
298.15 K, 1398 kPa	1404.87
298.15 K, 1714 kPa	1406.06
298.15 K, 3086 kPa	1411.1
298.15 K, 3454 kPa	1412.44
298.15 K, 28151 kPa	1482.31
298.15 K, 36116 kPa	1499.98
319.99 K, 1077 kPa	1338.31
319.99 K, 1422 kPa	1340.05
319.99 K, 1769 kPa	1341.72
319.99 K, 2102 kPa	1343.35
319.99 K, 2468 kPa	1345.14
319.99 K, 2807 kPa	1346.81
319.99 K, 3154 kPa	1348.46
319.99 K, 3382 kPa	1349.54
319.99 K, 7540 kPa	1367.61
319.99 K, 14192 kPa	1392.66
319.99 K, 20555 kPa	1413.23
319.99 K, 27780 kPa	1434.19
319.99 K, 36829 kPa	1456.94
319.99 K, 43292 kPa	1471.79
319.99 K, 49802 kPa	1485.45
319.99 K, 56704 kPa	1498.94
319.99 K, 62748 kPa	1510.07
319.99 K, 69080 kPa	1521.1
349.98 K, 1415 kPa	1240.4
349.98 K, 2137 kPa	1246.23
349.98 K, 2476 kPa	1248.87
349.98 K, 2793 kPa	1251.27
349.98 K, 3057 kPa	1253.22
349.98 K, 3564 kPa	1256.93
349.98 K, 7128 kPa	1280.11
349.98 K, 14242 kPa	1317.8
349.98 K, 21180 kPa	1347.2
349.98 K, 27731 kPa	1370.9
349.98 K, 35848 kPa	1396.4
349.98 K, 42725 kPa	1415.5
349.98 K, 49699 kPa	1433.1
349.98 K, 63152 kPa	1463.4
349.98 K, 67876 kPa	1472.9
349.99 K, 1706 kPa	1242.74
349.99 K, 56839 kPa	1449.7
374.97 K, 2088 kPa	1141.8
374.97 K, 2486 kPa	1147.25
374.97 K, 3125 kPa	1156.09
374.97 K, 3513 kPa	1160.16
374.97 K, 7191 kPa	1197.39
374.97 K, 13814 kPa	1245.37
374.97 K, 21029 kPa	1284.3
374.97 K, 35276 kPa	1341.17
374.98 K, 2825 kPa	1151.69
374.98 K, 27477 kPa	1312.44
374.98 K, 42480 kPa	1364.11
374.98 K, 49122 kPa	1383.05
374.98 K, 55869 kPa	1400.52
374.98 K, 61365 kPa	1413.75
374.98 K, 69602 kPa	1432.06
399.96 K, 3164 kPa	1019.46
399.96 K, 4220 kPa	1047.59
399.96 K, 21341 kPa	1223.13
399.97 K, 3545 kPa	1030.57
399.97 K, 4902 kPa	1062.22
399.97 K, 5593 kPa	1075.12
399.97 K, 6171 kPa	1085.57
399.97 K, 7297 kPa	1101.78
399.97 K, 14445 kPa	1176.05
399.97 K, 27495 kPa	1255.89
399.97 K, 42176 kPa	1315.43
399.97 K, 49196 kPa	1338.37
399.97 K, 56478 kPa	1359.31
399.98 K, 35409 kPa	1290.45
399.98 K, 62903 kPa	1376.29
399.98 K, 68677 kPa	1390.42
424.96 K, 4905 kPa	873.33
424.96 K, 5555 kPa	914.74
424.96 K, 6222 kPa	944.04
424.96 K, 7091 kPa	972.83
424.96 K, 13955 kPa	1091.53
424.96 K, 27401 kPa	1198.64
424.97 K, 21076 kPa	1156.9
424.97 K, 35181 kPa	1238.98
424.97 K, 41997 kPa	1268.18
424.97 K, 49019 kPa	1294.18
424.97 K, 56094 kPa	1317.32
424.97 K, 62391 kPa	1335.91
424.97 K, 68657 kPa	1352.82
